Assay results published in US11234941B2, “Oil-free carotenoid composition” (GAT Therapeutics S.L., priority 2017, dated 2022).

How the values were obtained:
[1] = biological target: T1, glucocorticoid receptor (GR) (Homo sapiens, UniProt P04150); experiment: SelectScreen cell-based GR antagonist assay (UAS-bla HEK 293T, beta-lactamase reporter, dexamethasone as agonist)
T1 construct: the UAS-driven beta-lactamase is the reporter
T1 sequence (P04150 524-777 limits assumed): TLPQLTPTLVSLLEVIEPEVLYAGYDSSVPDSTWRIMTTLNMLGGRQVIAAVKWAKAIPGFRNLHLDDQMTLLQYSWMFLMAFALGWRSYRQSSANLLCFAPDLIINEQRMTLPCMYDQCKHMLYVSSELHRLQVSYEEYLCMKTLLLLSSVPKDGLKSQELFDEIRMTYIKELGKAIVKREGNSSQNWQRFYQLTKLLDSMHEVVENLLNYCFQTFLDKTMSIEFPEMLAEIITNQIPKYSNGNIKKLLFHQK
Method: An antagonist assay for GR was performed by SelectScreen® Cell-Based Nuclear Receptor Profiling Service of Life Technologies. […] Detection method is based on a beta-lactamase reporter gene (bla) combined with a FRET-enabled substrate. The data obtained in these assays was modelled to a sigmoidal dose response curve.

[2] = Observation of precipitation and aggregates during nanoparticle preparation; details: after addition of the xanthophyll to the albumin solution
Method: To prepare bovine serum albumin (BSA)—astaxanthin nanoparticles, albumin (20 mg, 5 mg or 1 mg depending on the protein:carotenoid ratio) was dissolved in 1 mL deionized water and 1 mg of astaxanthin was dissolved in 0.25 mL THF. The astaxanthin solution was slowly added to the BSA solution under stirring and nitrogen atmosphere. When the addition of carotene was completed the solution was stirred at room temperature for 10 additional minutes. The organic solvent (THF) in the mixed solution was slowly removed by speed vacuum at 25° C. Distillation was completed when the total solution volume was reduced by ⅔. Finally, the nanoparticle solutions were filtered through a 0.22 μm PES membrane filter and immediately stored in the dark at 4° C.

[3] = at 10 μM, against dexamethasone

| Molecule | GR inhibition [1, 3] | antagonist effect on GR ([1]; against dexamethasone) | also measured |
| --- | --- | --- | --- |
| CC1=C(/C=C/C(C)=C/C=C/C(C)=C/C=C/C=C(C)/C=C/C=C(C)/C=C/C2=C(C)C(=O)[C@@H](O)CC2(C)C)C(C)(C)C[C@H](O)C1=O [astaxanthin, reference compound] |  | neither compound exercised an antagonist effect on GR |  |
| CC1=C(/C=C/C(C)=C/C=C/C(C)=C/C=C/C=C(C)/C=C/C=C(C)/C=C/C2=C(C)CCCC2(C)C)C(C)(C)CCC1 [beta-carotene, reference compound] |  | neither compound exercised an antagonist effect on GR |  |
| CC1=C[C@H](O)CC(C)(C)[C@H]1/C=C/C(C)=C/C=C/C(C)=C/C=C/C=C(C)/C=C/C=C(C)/C=C/C1=C(C)C[C@@H](O)CC1(C)C [lutein] |  |  | inhibition at 10 µM ([1]; HEK-293T, at 10 μM, against dexamethasone): 80% |
| fucoxanthin | 50% |  | concentration from which it acts as GR antagonist ([1]; against the agonist dexamethasone): 30 nM; formation of aggregates with poor solubility during nanoparticle preparation [2]: not observed |

Continued, in another order:

| GR inhibition [1, 3] | Molecule | antagonist effect on GR ([1]; against dexamethasone) | also measured |
| --- | --- | --- | --- |
| above 85% | CC(=C/C=C/C(C)=C/C=C/C=C(C)/C=C/C=C(\C)C=C=C1C(C)(C)C[C@H](O)C[C@@]1(C)O)/C=C/[C@@]12O[C@]1(C)C[C@@H](O)CC2(C)C [Neoxanthin, neoxanthin] |  |  |
| 80% | CC(=O)O[C@H]1CC(C)(C)C(=C=C/C(C)=C/C=C/C(C)=C/C=C/C=C(C)/C=C/C=C(\C)C(=O)/C=C2/C(C)(C)C[C@H](O)C[C@@]2(C)O)[C@](C)(O)C1 [isofucoxanthin] |  |  |
